Molecular target: SARS-CoV2-Mpro (Severe acute respiratory syndrome coronavirus 2 (2019-nCoV) (SARS-CoV-2), UniProt P0DTD1)
Assay: Primary assay: SARS-CoV2-Mpro enzymatic activity inhibition
Type: biochemical
Conditions: enzyme preincubated with compound for 20 min; slope of linear portion of signal
Method: Example A. Primary Assay Used to Determine Potency of SARS-CoV2-Mpro Enzymatic Activity Inhibition
• (1) Deliver 2× Enzyme • (2) Deliver buffer into No Enzyme wells • (3) Deliver compounds in 100% DMSO by using Acoustic technology (Echo550; nanoliter range) • (4) Incubate for 20 min • (5) Deliver 2× Substrate to initiate the reaction • (6) Spin & shake, start measuring in EnVision at rt; 5 min interval for 25 (2 hours) • (7) Analyze data by taking slope (signal/time) of linear portion of measurement • (8) Slope is calculated by using Excel, and curve fits are performed using Prism software.
The % inhibition was then used to calculate the IC50 values. The IC50 values are shown in Table A, wherein “A” corresponds to IC50<10.0 nm, “B” corresponds to 10.0 nm≤IC50<50.0 nm, “C” corresponds to 50.0 nm≤IC50<100.0 nm, “D” corresponds to 100.0 nm≤IC50<500.0 nm, and “E” corresponds to 500.0 nm≤IC50<1000.0 nm, and “F” corresponds to 1000.0 nm≤IC50.

Compound | IC50 [nM]
CC(C)(C)[C@H](NC(=O)C(F)(F)F)C(=O)N1C[C@H]2C([C@H]1C(=O)N[C@H](C#N)Cn1c(=O)[nH]c3ccccc31)C2(C)C (stereo in doubt) [Compound 301, (1R,2S,5S)—N—((S)-1-cyano-2-(2-oxo-2,3-dihydro-1H-benzo[d]imidazol-1-yl)ethyl)-3-((S)-3,3-dimethyl-2-(2,2,2-trifluoroacetamido)butanoyl)-6,6-dimethyl-3-azabicyclo[3.1.0]hexane-2-carboxamide] | ≥ 1000
CC(C)(C)[C@H](NC(=O)C(F)(F)F)C(=O)N1C[C@H]2[C@H]([C@H]1C(=O)N[C@H](C#N)CC1C(=O)Nc3ccc(Cl)cc31)C2(C)C (stereo partly drawn) [Compound 218, (1S,2S,5S)-N-[(1S)-2-(5-chloro-2-oxo-indolin-3-yl)-1-cyano-ethyl]-3-[(2S)-3,3-dimethyl-2-[(2,2,2-trifluoroacetyl)amino]butanoyl]-6,6-dimethyl-3-azabicyclo[3.1.0]hexane-2-carboxamide] | 10 to 50
CC(C)(C)[C@H](NC(=O)C(F)(F)F)C(=O)N1C[C@H]2[C@H]([C@H]1C(=O)N[C@H](C#N)CC1C(=O)Nc3cc(Cl)ccc31)C2(C)C (stereo partly drawn) [Compound 219, (1S,2S,5S)-N-[(1S)-2-(6-chloro-2-oxo-indolin-3-yl)-1-cyano-ethyl]-3-[(2S)-3,3-dimethyl-2-[(2,2,2-trifluoroacetyl)amino]butanoyl]-6,6-dimethyl-3-azabicyclo[3.1.0]hexane-2-carboxamide] | 10 to 50
Cc1ccc2c(c1)C(C[C@@H](C#N)NC(=O)[C@@H]1[C@H]3[C@H](CN1C(=O)[C@@H](NC(=O)C(F)(F)F)C(C)(C)C)C3(C)C)C(=O)N2 (stereo partly drawn) [Compound 220, (1S,2S,5S)-N-[(1S)-1-cyano-2-(5-methyl-2-oxo-indolin-3-yl)ethyl]-3-[(2S)-3,3-dimethyl-2-[(2,2,2-trifluoroacetyl)amino]butanoyl]-6,6-dimethyl-3-azabicyclo[3.1.0]hexane-2-carboxamide] | 10 to 50
COc1ccc2c(c1)C(C[C@@H](C#N)NC(=O)[C@@H]1[C@H]3[C@H](CN1C(=O)[C@@H](NC(=O)C(F)(F)F)C(C)(C)C)C3(C)C)C(=O)N2 (stereo partly drawn) [Compound 221, (1S,2S,5S)-N-[(1S)-1-cyano-2-(5-methoxy-2-oxo-indolin-3-yl)ethyl]-3-[(2S)-3,3-dimethyl-2-[(2,2,2-trifluoroacetyl)amino]butanoyl]-6,6-dimethyl-3-azabicyclo[3.1.0]hexane-2-carboxamide] | < 10
COc1ccc2c(c1)NC(=O)C2C[C@@H](C#N)NC(=O)[C@@H]1[C@H]2[C@H](CN1C(=O)[C@@H](NC(=O)C(F)(F)F)C(C)(C)C)C2(C)C (stereo partly drawn) [Compound 222, (1S,2S,5S)-N-[(1S)-1-cyano-2-(6-methoxy-2-oxo-indolin-3-yl)ethyl]-3-[(2S)-3,3-dimethyl-2-[(2,2,2-trifluoroacetyl)amino]butanoyl]-6,6-dimethyl-3-azabicyclo[3.1.0]hexane-2-carboxamide] | 10 to 50
CC(C)(C)[C@H](NC(=O)C(F)(F)F)C(=O)N1C[C@H]2[C@H]([C@H]1C(=O)NC(C#N)CC1C(=O)Nc3ccccc31)C2(C)C (stereo partly drawn) [Compound 226, (1S,2S,5S)—N-[1-cyano-2-(2-oxoindolin-3-yl)ethyl]-3-[(2S)-3,3-dimethyl-2-[(2,2,2-trifluoroacetyl)amino]butanoyl]-6,6-dimethyl-3-azabicyclo[3.1.0]hexane-2-carboxamide] | < 10
CC(C)CCN(C(=O)[C@@H]1[C@@H]2[C@H](CN1C(=O)[C@@H](NC(=O)C(F)(F)F)C(C)(C)C)C2(C)C)[C@H](C#N)C[C@@H]1C(=O)Nc2ccccc21 [Compound 247, (1R,2S,5S)-N-[(1S)-1-cyano-2-(2-oxoindolin-3-yl)ethyl]-3-[(2S)-3,3-dimethyl-2-[(2,2,2-trifluoroacetyl)amino]butanoyl]-N-isopentyl-6,6-dimethyl-3-azabicyclo[3.1.0]hexane-2-carboxamide] | ≥ 1000
CCCN(C(=O)[C@@H]1[C@@H]2[C@H](CN1C(=O)[C@@H](NC(=O)C(F)(F)F)C(C)(C)C)C2(C)C)[C@H](C#N)C[C@@H]1C(=O)Nc2ccccc21 [Compound 248, (1R,2S,5S)-N-[(1S)-1-cyano-2-(2-oxoindolin-3-yl)ethyl]-3-[(2S)-3,3-dimethyl-2-[(2,2,2-trifluoroacetyl)amino]butanoyl]-6,6-dimethyl-N-propyl-3-azabicyclo[3.1.0]hexane-2-carboxamide] | ≥ 1000
CC(C)(C)[C@H](NC(=O)C(F)(F)F)C(=O)N1C[C@H]2[C@@H]([C@H]1C(=O)NC(C#N)CC1C(=O)Nc3ncccc31)C2(C)C (stereo partly drawn) [Compound 249] | 500 to 1000
CC(C)(C)[C@H](NC(=O)C(F)(F)F)C(=O)N1C[C@H]2[C@@H]([C@H]1C(=O)NC(C#N)CCC1C(=O)Nc3ccccc31)C2(C)C (stereo partly drawn) [Compound 250, (1R,2S,5S)—N-[1-Cyano-3-(2-oxoindolin-3-yl)propyl]-6,6-dimethyl-3-[(2S)-3,3-dimethyl-2-[(2,2,2-trifluoroacetyl)amino]butanoyl]-3-azabicyclo[3.1.0]hexane-2-carboxamide] | 500 to 1000
CC(C)(C)[C@H](NC(=O)C(F)(F)F)C(=O)N1C[C@H]2[C@H]([C@H]1C(=O)N[C@H](C#N)Cn1nnc3ccccc31)C2(C)C [Compound 308, (1S,2S,5S)-N-[(1S)-2-(benzotriazol-1-yl)-1-cyano-ethyl]-3-[(2S)-3,3-dimethyl-2-[(2,2,2-trifluoroacetyl)amino]butanoyl]-6,6-dimethyl-3-azabicyclo[3.1.0]hexane-2-carboxamide] | ≥ 1000

— patent US20250376464A1 (Trawsfynydd Therapeutics, Inc., priority 2022, published 2025)
